For this test, the target named is T1, LPAAT-β (Homo sapiens, UniProt O15120).
T1 construct: the full-length human LPAAT-β cDNA was amplified by PCR; poly-histidine tag (from pFastBac HTc vector) (N); made in house; host or cells: Sf9 insect cells (baculovirus); membrane fraction used
T1 sequence (O15120 24-278): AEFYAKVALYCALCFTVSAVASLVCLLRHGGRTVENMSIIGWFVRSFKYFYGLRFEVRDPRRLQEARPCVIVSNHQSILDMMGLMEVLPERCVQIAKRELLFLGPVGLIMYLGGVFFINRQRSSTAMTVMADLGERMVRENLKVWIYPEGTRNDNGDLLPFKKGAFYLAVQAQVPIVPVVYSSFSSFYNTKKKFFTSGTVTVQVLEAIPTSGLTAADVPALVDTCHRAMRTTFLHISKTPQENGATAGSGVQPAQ
Nature of the test: LPAAT-β cell-free assay (colorimetric primary screen, radiometric/fluorescent TLC secondary assay). Conditions: Sf9 cell membrane overexpressing LPAAT-β. It counts as biochemical. An excerpt:
A. Production of Recombinant LPAAT-β for Assays
For the construction of Baculovirus expression vectors, the full-length human LPAAT-β cDNA was amplified by PCR from the DNA template pCE9.LPAAT-β (West et al., DNA Cell Biol. 16:691-701 (1997)) using the primers 5′-[…] […] […] […]-3′ (olpb1F; SEQ ID NO:1) and 5′-[…] […] […]-3′ (olpb1R; SEQ ID NO:2). The ˜870 bp fragment generated was reamplified by PCR using the primers 5′[…] […] […] […] ATC-3′ (olpb2F; SEQ ID NO:3) and 5′-[…] […] […]-3′ (olpb1R; SEQ ID NO:2). The ˜890 bp fragment generated was then cleaved with Sal I and Xba I for insertion into pFastBac™ HTc vector (Life Technologies, Gaithersberg, Md.) between the Sal I and Xba I sites for the generation of the plasmid pFB.LPAAT-β. This plasmid was then transformed into E. coli DH10Bac™ (Life Technologies, Gaithersberg, Md.) for the generation of recombinant Bacmid DNA for transfection in HighFive (Invitrogen, San Diego, Calif.) or SF9 insect cells for the production of recombinant Baculovirus stocks using the protocol described in the Bac-to-Bac® Baculovirus Expression System (Life Technologies, Gaithersberg, Md.), a eukaryotic expression system for generating recombinant baculovirus through site-specific transposition in E. coli. Viral stocks harvested from the transfected cells can then be used to infect fresh insect cells for the subsequence expression of LPAAT-β fusion protein with a poly-histidine tag and a myc-epitope near its N-terminus. The membrane fraction from these Sf9 cells would be the source of LPAAT enzyme.
B. Preparation of Cell Membranes from Sf9 Cells
For the preparation of membranes from Sf9 Cells, all steps are performed on ice or at 4° C. Sf9 cell pellets (˜10^8 cells) were thawed and resuspended in 1-2 ml of buffer A (20 mM Hepes, pH 7.5, 1 mM DTT, 1 mM EDTA, 20% w/v glycerol, 1 mM Benzamidine, 1 μg/ml soybean trypsin inhibitor (SBTI), 1 μg/ml pepstatin A) w/o DTT but with 1 mM Pefabloc. The cells were lysed by sonication using a Branson Sonifier at output=2, duty cycle=2, 10 pulses each at 10s. with the tip of small sonicator probe submerged but not touching the walls. DTT was then added to 1 mM from a 1 M stock. The samples were centrifuged at 1500 rpm for 5 min. The low speed supernatant was saved and centrifuged (TLA 100.3 rotor, polycarbonate tubes, 2 ml/tube or 1.5 ml/tube minimum) at 100000×g for 1 hr. The high speed pellet was resuspend in Buffer A with a probe sonicator (10 pulses @ output #2 and duty cycle 20%) as a source of LPAAT enzyme.
C. Assay of LPAAT-β Activity
LPAAT-β catalyzes the transfer of an acyl group from a donor such as acyl-CoA to LPA. The transfer of the acyl group from acyl-CoA to LPA leads to the release of free CoA, which can be reacted with the thiol reagent, 5,5′-dithiobis(2-nitrobenzoic acid) (DTNB). The reaction between DTNB and the free sulfhydryl group from CoA generates a yellow-colored product, 3-carboxylato-4-nitrothiophenolate (CNP), that absorbs at 413 nm. LPAAT-β derived from Sf9 cell membrane overexpressing LPAAT-β were resuspended in HEPES saline buffer (20 mM HEPES pH 7.5, 150 mM NaCl), 1 mg/ml BSA and 72 μl aliquots were distributed into 96-well microtiter plates. 8 μl of compound of interest at 200 μM dissolved in 100% DMSO was added into each well. 20 μl of 1 mM 18:1-CoA and 1 mM sn-1-18:1 lysoPA was then added to each well to initiate the reaction and allowed to run at room temperature for 25 min. 100 μl of 1 mM DTNB in 100% ethanol was then added to each well to quench the reaction and for color development. The absorbance at 405 nm, measured using a spectrophotometer plate reader, is proportional to the activity of LPAAT-β in the sample. This colorimetric assay was used for the high throughput screening of LPAAT inhibitors.

`Cc1ccc(Cl)cc1-c1nc(Cl)nc(Nc2ccc(N=[N+]=[N-])cc2)n1` [Example 35, [6-(5-Chloro-2-methyl-phenyl)-2-chloro-3-yl-[1,3,5]-triazin-4-yl]-(4-azido-phenyl)-amine]: it took 0.13 µM to reach half-maximal inhibition (IC50).

With `Cc1ccc(Br)c(-c2nc(N)nc(Nc3ccc(Cl)cc3)n2)c1` [Example 86, 6-(2-bromo-5-methyl-phenyl)-N-(4-chloro-phenyl)-[1,3,5]triazine-2,4-diamine], the 50% inhibitory concentration (IC50) (commonly the concentration that inhibits the measured activity by half) turned out to be 0.45 µM.

Compound `COc1ccc(Cl)cc1-c1nc(N)nc(Nc2ccc(Cl)cc2)n1` [Example 1, 6-(5-Chloro-2-methoxyphenyl)-N-(4-chlorophenyl)-[1,3,5]triazine-2,4-diamine] returned an IC50 of 0.057 µM.

As for `Nc1nc(Nc2ccc(Br)cc2)nc(-c2cc(Cl)ccc2C(F)(F)F)n1` [Example 40, N-(4-bromophenyl)-6-(5-chloro-2-trifluoromethylphenyl)-[1,3,5]triazine-2,4-diamine], the concentration for half-maximal inhibition (IC50) is 2.6 µM.

The compound `Cc1nc(Nc2ccc(Br)cc2)nc(-c2cc(Cl)ccc2C)n1` [Example 23] showed an IC50 of 0.014 µM.

The compound `Cc1ccc(Cl)cc1-c1nc(N)nc(Nc2ccc3cn[nH]c3c2)n1` [Example 13, 6-(5-Chloro-2-Methyl-Phenyl)-N-(1H-Indazol-6-yl)-[1,3,5]Triazine-2,4-Diamine] returned a half-maximal inhibitory concentration (IC50) of 0.055 µM.

Compound `Cc1ccc(Cl)cc1-c1nc(N)nc(Nc2ccc(COC(=O)[C@@H](N)CC(=O)O)cc2)n1` [Example 72, (S)-2-Amino-succinic acid 1-{4-[4-amino-6-(5-chloro-2-methyl-phenyl)-[1,3,5]triazin-2-ylamino]-benzyl}ester] yielded an IC50 of 1.4 µM.

`CNC(=O)c1cc(Nc2nc(N)nc(-c3cc(Cl)ccc3C)n2)ccc1Cl` [Example 43, 5-[4-amino-6-(5-chloro-2-methylphenyl)-[1,3,5]triazin-2-ylamino]-2-chloro-N-methylbenzamide] had a half-maximal inhibitory concentration (IC50) of 0.4 µM.

`COc1ccc(Cl)cc1-c1nc(N)nc(Nc2ccc(Br)cc2)n1` [Example 10, N-2-(4-Bromophenyl)-6-(5-chloro-2-methoxyphenyl)-[1,3,5]triazine-2,4-diamine] displayed an IC50 of 0.076 µM.

`Cc1ccc(Cl)cc1-c1nc(N)nc(Nc2ccc(COC(=O)[C@@H](N)CCCNC(=N)N)cc2)n1` [Example 75, (S)-2-Amino-5-guanidino-pentanoic acid 4-[4-amino-6-(5-chloro-2-methyl-phenyl)-[1,3,5]triazin-2-ylamino]-benzyl ester] returned a half-maximal inhibitory concentration (IC50) of 0.97 µM.

For `Cc1ccc(Cl)cc1-c1nc(N)nc(Nc2ccc(N=[N+]=[N-])cc2)n1` [Example 36, 6-(5-Chloro-2-methyl-phenyl)-N-(4-azido-phenyl)-amino-[1,3,5]triazine-2,4-diamine], the IC50 came out at 0.88 µM.

`CSc1nc(Nc2ccc(Br)cc2)nc(-c2cc(Cl)ccc2C)n1` [Example 29, (4-Bromo-phenyl)-[4-(5-chloro-2-methyl-phenyl)-6-methylsulfanyl-[1,3,5]triazin-2-yl]-amine] yielded a 50% inhibitory concentration (IC50) of 1.1 µM.

Consider `Nc1nc(Nc2cccc(Cl)c2)nc(-c2cc(Cl)ccc2Cl)n1` [Example 90, N-(3-chlorophenyl)-6-(2,5-dichlorophenyl)-[1,3,5]triazine-2,4-diamine], for which the IC50 is 4.8 µM.

`Cc1ccc(Cl)cc1-c1nc(N)nc(Nc2ccc(CN(C)C)cc2)n1` [Example 58, 6-(5-Chloro-2-methyl-phenyl)-N-(4-dimethylaminomethyl-phenyl)-[1,3,5]triazine-2,4-diamine]: 1.8 µM corresponded to half-maximal inhibition (IC50).

`COc1ccc(Cl)cc1-c1nc(N)nc(Nc2ccccc2)n1` [Example 2, 6-(5-Chloro-2-methoxyphenyl)-N-phenyl-[1,3,5]triazine-2,4-diamine] registered an IC50 of 2.3 µM.

The compound `CCOc1ccc(Cl)cc1-c1nc(N)nc(Nc2ccc(Cl)c(C(=O)NC)c2)n1` [Example 62, 5-[4-Amino-6-(5-chloro-2-ethoxyphenyl)-[1,3,5]triazin-2-ylamino]-2-chloro-N-methylbenzamide] returned a concentration for half-maximal inhibition (IC50) of 1 µM.

`CC(C)Oc1ccc(Cl)cc1-c1nc(N)nc(Nc2ccc(Cl)cc2)n1` [Example 52, 6-(5-Chloro-2-isopropoxy-phenyl)-N-(4-chloro-phenyl)-[1,3,5]triazine-2,4-diamine]: the IC50 was 0.62 µM.

With `Cc1ccc(Cl)cc1-c1nc(Cl)nc(Nc2ccc3cn[nH]c3c2)n1` [Example 26, [4-Chloro-6-(5-chloro-2-methyl-phenyl)-[1,3,5]triazin-2-yl]-(1H-indazol-6-yl)-amine], the midpoint of inhibition, the IC50, lay at 0.004 µM.

In turn, `COc1ccc(Cl)cc1-c1nc(N)nc(Nc2ccc(C)cc2)n1` [Example 79, 6-(5-Chloro-2-methoxy-phenyl)-N-p-tolyl-[1,3,5]triazine-2,4-diamine] showed an IC50 of 0.23 µM.

For `COc1nc(Nc2ccc(Br)cc2)nc(-c2cc(Cl)ccc2C)n1` [Example 21], the IC50 is 0.2 µM.

With `COc1ccc(OC)c(-c2nc(N)nc(Nc3ccc(Cl)cc3)n2)c1` [Example 17, N-(4-chlorophenyl)-6-(2,5-dimethoxyphenyl)-[1,3,5]triazine-2,4-diamine], the IC50 was found to be 1 µM.

On to `Cc1ccc(Cl)cc1-c1nc(N)nc(Nc2ccc(CCO)cc2)n1` [Example 57, 2-{4-[4-Amino-6-(5-chloro-2-methyl-phenyl)-[1,3,5]triazin-2-ylamino]-phenyl}-ethanol], for which the half-inhibitory concentration (IC50) amounted to 0.14 µM.

For the origin of these results see patent US7618968B2, “Aryl triazines as LPAAT-β inhibitors and uses thereof” (Cell Therapeutics, Inc., priority 2001, dated 2009).
